Assays:
[1] = refractive index (Na D-line) (dimensionless); details: 101.33 kPa, Liquid, Standard Abbe refractometry
[2] = for mass density: 101.33 kPa, Vibrating tube method; for mass density / surface tension liquid-gas: Liquid; for surface tension liquid-gas: Maximal bubble pressure; for Glass transition temperature: DSC

CCCCn1cc[n+](C)c1.N[C@@H](CO)C(=O)[O-] [1-butyl-3-methylimidazolium L-serinate]
Details | mass density, [2] [kg/m3] | refractive index, [1] | surface tension liquid-gas, [2] [mN/m]
298.15 K | 1156.04 | 1.5143 | 45.4
303.15 K | 1152.82 | 1.5135 | 45.2
308.15 K | 1149.61 | 1.5126 | 45
313.15 K | 1146.45 | 1.5114 | 44.7
318.15 K | 1143.31 | 1.5106 | 44.4
323.15 K | 1140.08 | 1.5096 | 44.3
328.15 K | 1136.91 | 1.5091 | 44
333.15 K | 1133.81 | 1.5077 | 43.8
338.15 K | 1130.64 | 1.5069 | 43.5

Details | Glass transition temperature [°C]
[2] | -47.20

CCC[n+]1ccn(C)c1.N[C@@H](CO)C(=O)[O-] [1-methyl-3-propylimidazolium L-serinate]
Details | mass density, [2] [kg/m3] | refractive index, [1] | surface tension liquid-gas, [2] [mN/m]
298.15 K | 1181.51 | 1.5179 | 46.8
303.15 K | 1178.34 | 1.5165 | 46.6
308.15 K | 1175.19 | 1.5153 | 46.4
313.15 K | 1172.03 | 1.5141 | 46.1
318.15 K | 1168.88 | 1.5131 | 45.8
323.15 K | 1165.67 | 1.5123 | 45.6
328.15 K | 1162.6 | 1.5112 | 45.4
333.15 K | 1159.49 | 1.51 | 45.1
338.15 K | 1156.42 | 1.5086 | 44.9

Details | Glass transition temperature [°C]
[2] | -54.5
